From patent US20220395549A1, “COMPOSITIONS OF THE OLEA EUROPAEA V. SYLVESTRIS WITH ANTIMICROBIAL EFFICACY” (TAPROGGE GMBH, priority 2019, published 2022)

Experiments:
S. aureus ATCC 6538 = assay: quantitative suspension assay of mono-substances; assay type: cell-based, Staphylococcus aureus; settings: for Number of CFUs: initial cell load 9.5 × 10^4 CFU/ml
Procedure, shortened: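 Hydroxytyrosol, uvaol and erythrodiol were tested at 2 mg/ml stock plus dilutions to 0.125 mg/ml (solvent methanol or chloroform, in water). Oleocanthal was tested at 1–0.125 mg/ml and oleacin at 0.25 and 0.125 mg/ml in ethanol/water. Inocula were ~100,000 CFU/ml at 20–25° C, sampled from 0 min to 72 h and plated on blood agar.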

[1] = solubility as encountered during the assays; assay type: physicochemical
From the text: The reduction at the later points in time is due to the natural loss of viability of the bacteria.

CC1(C)CC[C@]2(CO)CC[C@]3(C)C(=CC[C@@H]4[C@@]5(C)CC[C@H](O)C(C)(C)[C@@H]5CC[C@]43C)[C@@H]2C1 [erythrodiol]
Number of CFUs (S. aureus ATCC 6538; 0.125 Ery/ml, t 0 min): >10^4 CFU/ml | Number of CFUs (S. aureus ATCC 6538; 0.125 Ery/ml, t 12 min): >10^4 CFU/ml | Number of CFUs (S. aureus ATCC 6538; 0.125 Ery/ml, t 30 min): >10^4 CFU/ml | Number of CFUs (S. aureus ATCC 6538; 0.125 Ery/ml, t 60 min): >10^4 CFU/ml | Number of CFUs (S. aureus ATCC 6538; 0.125 Ery/ml, t 24 h): >10^4 CFU/ml | Number of CFUs (S. aureus ATCC 6538; 0.125 Ery/ml, t 48 h): >10^4 CFU/ml | Number of CFUs (S. aureus ATCC 6538; 0.125 Ery/ml, t 72 h): >10^4 CFU/ml | Number of CFUs (S. aureus ATCC 6538; 0.25 Ery/ml, t 0 min): 2.8 × 10^4 CFU/ml | Number of CFUs (S. aureus ATCC 6538; 0.25 Ery/ml, t 12 min): 2.9 × 10^4 CFU/ml | Number of CFUs (S. aureus ATCC 6538; 0.25 Ery/ml, t 30 min): 2.0 × 10^4 CFU/ml | Number of CFUs (S. aureus ATCC 6538; 0.25 Ery/ml, t 60 min): 1.7 × 10^4 CFU/ml | Number of CFUs (S. aureus ATCC 6538; 0.25 Ery/ml, t 24 h): >10^4 CFU/ml | Number of CFUs (S. aureus ATCC 6538; 0.25 Ery/ml, t 48 h): >10^4 CFU/ml | Number of CFUs (S. aureus ATCC 6538; 0.25 Ery/ml, t 72 h): >10^4 CFU/ml | Number of CFUs (S. aureus ATCC 6538; 0.5 Ery/ml, t 0 min): 1.9 × 10^4 CFU/ml | Number of CFUs (S. aureus ATCC 6538; 0.5 Ery/ml, t 12 min): 2.0 × 10^4 CFU/ml | Number of CFUs (S. aureus ATCC 6538; 0.5 Ery/ml, t 30 min): 1.8 × 10^4 CFU/ml | Number of CFUs (S. aureus ATCC 6538; 0.5 Ery/ml, t 60 min): 1.0 × 10^4 CFU/ml | Number of CFUs (S. aureus ATCC 6538; 0.5 Ery/ml, t 24 h): >10^4 CFU/ml | Number of CFUs (S. aureus ATCC 6538; 0.5 Ery/ml, t 48 h): >10^4 CFU/ml | Number of CFUs (S. aureus ATCC 6538; 0.5 Ery/ml, t 72 h): >10^4 CFU/ml | Number of CFUs (S. aureus ATCC 6538; 1.0 Ery/ml, t 0 min): <100 CFU/ml | Number of CFUs (S. aureus ATCC 6538; 1.0 Ery/ml, t 12 min): <100 CFU/ml | Number of CFUs (S. aureus ATCC 6538; 1.0 Ery/ml, t 30 min): <100 CFU/ml | Number of CFUs (S. aureus ATCC 6538; 1.0 Ery/ml, t 60 min): <100 CFU/ml | Number of CFUs (S. aureus ATCC 6538; 1.0 Ery/ml, t 24 h): 1.7 × 10^4 CFU/ml | Number of CFUs (S. aureus ATCC 6538; 1.0 Ery/ml, t 48 h): 1.0 × 10^4 CFU/ml | Number of CFUs (S. aureus ATCC 6538; 1.0 Ery/ml, t 72 h): 8.8 × 10^3 CFU/ml | Number of CFUs (S. aureus ATCC 6538; 2.0 Ery/ml, t 0 min): <100 CFU/ml | Number of CFUs (S. aureus ATCC 6538; 2.0 Ery/ml, t 12 min): <100 CFU/ml | Number of CFUs (S. aureus ATCC 6538; 2.0 Ery/ml, t 30 min): <100 CFU/ml | Number of CFUs (S. aureus ATCC 6538; 2.0 Ery/ml, t 60 min): <100 CFU/ml | Number of CFUs (S. aureus ATCC 6538; 2.0 Ery/ml, t 24 h): 8.2 × 10^3 CFU/ml | Number of CFUs (S. aureus ATCC 6538; 2.0 Ery/ml, t 48 h): <100 CFU/ml | Number of CFUs (S. aureus ATCC 6538; 2.0 Ery/ml, t 72 h): <100 CFU/ml | antimicrobial effect, summary in words (S. aureus ATCC 6538; detection limit of the assay 100 CFU/ml): strong effect after incubation at concentrations of 2.0 Ery/ml | solubility [1]: poor solubility
